Assay results reported in a melting point compilation (Tetko et al.; mined from patent text by program, amines drawn as free bases though some values may be those of a salt).

`Cc1nc(C)n(-c2cc(C)c3[nH]c(=O)ccc3c2)c1I` gave a melting point of 242 to 245 °C.
`Cc1nc(N)c2nc(CO)n(NC(C)C)c2c1C` showed a melting point of 257 to 259 °C.
Compound `O=C(NC1C2CC3CC(C2)CC1C3)c1cc(-c2ccc(Cl)cc2)n(-c2ccc(Cl)cc2Cl)n1` (configuration not stated) has a melting point of 203 °C.
Compound `COc1cn(-c2ccc(-n3nccc3O)cc2F)nc(-c2ccnn2-c2ccccc2)c1=O` has a melting point of 221 to 229 °C.
In the case of `CC(C)Nc1nc(-n2cccn2)nc(Cl)c1-c1c(F)cccc1Cl`, the melting point is reported as 94 to 98 °C.
Compound `O=Cc1cc(Cl)ccc1Sc1ccccc1F` has a melting point of 85.5 to 88 °C.
Work on `C=Cn1nc(-c2ccc(OC)cc2)cc(C(=O)NC)c1=O` yielded a melting point of 130 to 133 °C.
Compound `Cc1cc(C2=NOC(c3cc(Cl)cc(Cl)c3)(C(F)(F)F)C2)ccc1C(=O)NC1CSC1` (configuration not stated) has a melting point of 158 to 159 °C.
For `Cc1cc2c(c(OCC(=O)c3ccc(C(C)C)cc3)c1)CCC2`, the melting point was 68 to 69 °C.
Work on `Cn1c(=O)c2c(c3ccccc31)c1cc(Cl)ccc1n2CCN` yielded a melting point of 222 to 224 °C.
`Cc1ccc(S(=O)(=O)OCCOCn2cc(F)c(=O)[nH]c2=O)cc1` showed a melting point of 141 to 142 °C.
`CC(=O)c1ccc(N2CCN(c3ccncc3)CC2)cc1` gave a melting point of 176 to 177 °C.
In the case of `O=C(Nc1ccc(F)c(NS(=O)(=O)c2cccs2)c1)c1ccc(F)c(F)c1`, the melting point is reported as 202 to 203 °C.
For `O=c1cc(C(F)(F)F)nc(Cl)n1-c1cc(Oc2ncccn2)c(Cl)cc1F`, the melting point was 132 to 134 °C.
`O=C(O)CCC(=O)Cc1ccc2c(c1)Cc1cccnc1O2` showed a melting point of 146 to 147 °C.
Work on `CCNc1nc(Nc2ccccc2)ncc1C=CC#N` yielded a melting point of 244 to 246 °C.
For `C=Cc1cccc(-n2cnc(-c3cnc4[nH]cc(C(=O)N[C@@H](C)C(C)(C)C)c4n3)c2)c1`, the melting point was 253 to 257 °C.
`CCn1c(-c2ccc(-n3ccnc3)cc2)cnc1[C@H](Cc1ccccn1)N(C=O)c1cc2cc(F)ccc2o1` gave a melting point of 80 to 84 °C.
In the case of `O=C1NC(=O)C2(N1)C(=O)N(Cc1ccc(Cl)c(Cl)c1)c1c(F)cccc12` (single isomer, unassigned; (+)), the melting point is reported as 246 °C.
`CC(C(=O)O)c1ccc(C2CCCCC2)c2ccccc12` (configuration not stated) gave a melting point of 150 °C.
In the case of `CN1CCC(NC(=O)c2cc(Cl)cc3oc(-c4ccccc4)nc23)CC1`, the melting point is reported as 170 to 172 °C.
With `CCNC(=O)c1ccc(N2CCN(Cc3cc4c(c(OC)c3)OC(C)C(=O)N4)CC2)c(Cl)c1` (configuration not stated) the melting point was 119 to 121 °C.
Compound `O=c1oc2c(c(O)c1C1(c3ccccc3)CCC1)CCCCCC2` has a melting point of 240 to 241 °C.
`COc1cc(OC)c2c(=O)c(OCCOc3ccc(C(C)=O)cc3)c(-c3ccc(OC)c(OC)c3)oc2c1` showed a melting point of 143 to 144 °C.
`O=C(C#Cc1ccc(Cl)cc1Cl)Nc1ccc2oc(CCN3CCCC3)nc2c1` showed a melting point of 130 °C.
`O=C(O)c1c(F)cccc1NC1CCN(Cc2ccccc2)CC1` gave a melting point of 233 to 236 °C.
Compound `CC1(C)CC(=O)C(C(=S)Nc2ccc(Cl)c(C(F)(F)F)c2)C(=O)C1` has a melting point of 101 to 102 °C.
Compound `COc1ccc(Br)c(Sc2nc3c(N)nccc3n2CCCNC(C)C)c1` has a melting point of 125 to 129 °C.
`O=C(c1ccccc1)c1cnn2c(-c3ccccc3)ccnc12` gave a melting point of 163 to 165 °C.
`CCOC(=O)c1cc2c(=O)n(CC)c3ccc(Cl)cc3n2c1` gave a melting point of 230 to 232 °C.
In the case of `COC(=O)c1ccc(C2(C(=O)Oc3ccc(C(=O)NO)cc3)CCCCC2)cc1`, the melting point is reported as 129 to 131 °C.
Work on `O=C(NC[C@H](O)c1ccccc1)c1ccnc(N2CCN(Cc3ccc(F)cc3)C2=O)c1` yielded a melting point of 97 to 99 °C.
With `CN(C)c1ccc(N2CCN(Cc3c[nH]c4ncccc34)CC2)cc1` the melting point was 199 to 201 °C.
With `Cc1cc([N+](=O)[O-])c2c(c1Cl)CC(C)O2` (configuration not stated) the melting point was 114 to 116 °C.
For `CN1C(=O)C(C(=N)c2ccccc2)=C(O)CC1c1ccccc1` (configuration not stated), the melting point was 117 to 120 °C.
With `CCc1cccc2cc(C(C)=O)oc12` the melting point was 59 to 60 °C.
For `COc1ccc(N/C=C2\C(=O)NC(=O)c3ccccc32)cc1`, the melting point was 150 to 151 °C.
Work on `COC(=O)c1cc(O)c([N+](=O)[O-])cc1C(=O)OC` yielded a melting point of 82 to 85 °C.
Compound `CNC(=O)COC(=O)N1CCN(CCc2ccc3ccccc3c2)CC1` has a melting point of 133 to 135 °C.
Compound `Cc1cc(N2CCN(c3c(C)c(C)c4c(c3C)CC(C)(C)O4)CC2)n2nccc2n1` has a melting point of 180 to 182 °C.
Compound `CC(=O)C(=Cc1cc(O)c(O)c(C(F)(F)F)c1)C(C)=O` has a melting point of 198 to 205 °C.
In the case of `Cc1c(NC(=O)CC(C)(C)C)cc2c(c1C)OC(C)(C)C2(O)c1ccco1` (configuration not stated), the melting point is reported as 108 to 110 °C.
With `Nc1nc(N)c2cc(C=Cc3ccc(C(=O)O)cc3)cnc2n1` the melting point was over 300 °C.
`Nc1cc(C(=O)O)cc(S(N)(=O)=O)c1Nc1cccc(C(F)(F)F)c1` gave a melting point of 273 to 274 °C.
`COC(=O)CCCCCCCCCNS(=O)(=O)c1ccc(Cl)cc1` showed a melting point of 68 to 70 °C.
In the case of `CCN1C(=O)C(C)(C)C(=O)N(C)c2cc(CN(CCn3ccc4oc(C)cc4c3=O)Cc3n[nH]c4c(C)cccc34)ccc21`, the melting point is reported as 111 to 118 °C.
Compound `CCOC(=O)C1(CC(N)=O)C(=O)N(Cc2ccc(Br)cc2F)C(=O)c2cccn21` (configuration not stated) has a melting point of 190 to 192 °C.
Compound `N#Cc1cc(CO)nc(C(=O)Nc2ccc(F)cn2)c1` has a melting point of 232 °C.
Compound `O=S(=O)(Cc1ccc(Cc2ccc(NC3=NCCN3)cc2)cc1)NCc1ccccc1` has a melting point of 115 to 118 °C.
Work on `COc1cc(N2CCC(N3CCOCC3)C2)ccc1Nc1ncc2ccc(-c3ccccc3N(C)S(C)(=O)=O)n2n1` (configuration not stated) yielded a melting point of 110 to 119 °C.
Work on `CCOC(=O)c1ccc(C=C(CCCc2ccc(C(=O)O)cc2)Cn2ccnc2)cc1` yielded a melting point of 167 to 170 °C.
Compound `O=C1C[C@@H](NC(=O)OCc2ccccc2)C(=O)N1` has a melting point of 117 to 118 °C.
With `CC1CC(=O)c2cc(N)c(F)cc2O1` (configuration not stated) the melting point was 135 to 138 °C.
Compound `COC(=O)c1nc(Cl)c(Cl)c(Cl)c1I` has a melting point of 61 to 62 °C.
Compound `Cc1ccc(P(c2ccc(C)cc2)c2cccc3c2-c2c(cccc2P(c2ccc(C)cc2)c2ccc(C)cc2)OCCCO3)cc1` has a melting point of 108 to 110 °C.
With `Cc1cc(-n2ccnc2)c2cccc(OCc3c(Cl)ccc(S(=O)(=O)N4CCC[C@H]4C(=O)NCC4CCN(CCCC(=O)O)CC4)c3Cl)c2n1` the melting point was 178 °C.
`CC1(C)OCCC(=NO)c2ccccc2NC1=O` showed a melting point of 205 to 206 °C.
Compound `CC[C@H](C)[C@H](NC(=O)[C@@H]1CCCN1CC(=O)[C@H](Cc1ccccc1)NC(=O)OCc1ccccc1)C(=O)NCC(C)C` has a melting point of 80 to 81 °C.
For `OC(Cn1ccnc1)(c1ccc(Cl)cc1)C1(Oc2ccc(Cl)cc2)CC1` (configuration not stated), the melting point was 172 to 173 °C.
In the case of `COC(=O)C(C)c1cccc(C(=O)c2ccccc2)c1` (configuration not stated), the melting point is reported as 50 to 52 °C.
In the case of `COc1ccc([C@]2(C)C=Cc3cc(OC)ccc3[C@H]2C=O)cc1` (relative stereo), the melting point is reported as 127 °C.
With `COc1ccc(C2=NN(Cc3ccccc3)C(=O)[C@H]3CCCC[C@@H]23)cc1OC` (relative stereo) the melting point was 86 to 88 °C.
Compound `N#CCNC(=O)c1ccnc(F)c1` has a melting point of 124 to 125 °C.
For `COc1cc(OCCSC)ccc1-c1nc2ncccc2[nH]1`, the melting point was 197 to 199 °C.
`Cc1nc2c3cccc(Cl)c3ccn2c1CN(C)C` showed a melting point of 157 to 160 °C.
`CCCCN1CCSC1c1nsc2ccc(-n3c(=O)cc(C(F)(F)F)n(C)c3=O)cc12` (configuration not stated) gave a melting point of 78 to 82 °C.
Compound `COC(=O)C(C)(C)n1c(=O)[nH]c2ccccc2c1=O` has a melting point of 158 to 159 °C.
Compound `Nc1nc(Cl)nc(N(CCC(=O)O)Cc2ccc(Cl)c(Cl)c2)n1` has a melting point of 105 to 110 °C.
For `O=C(CCCCc1ccccc1)N[C@H](Cc1ccc(C(F)(F)F)cc1)[C@@H](O)c1ccc(F)cc1` (racemic), the melting point was 152 to 153 °C.
`O=C(Nc1ccc(Oc2ccnc(N3CCC4(CC3)OCCO4)n2)c2ccccc12)c1cc(F)cc(N2CCCCC2)c1` gave a melting point of 195 to 196 °C.
For `O=C(Nc1ccccc1Oc1ccc(Cl)cc1)C1CCN(C(=O)c2ccccc2)CC1`, the melting point was 158 to 160 °C.
With `CN(C)c1nc2cc(NC(=O)c3c(C(=O)N4CCC4)cnn3C)ccn2n1` the melting point was 240 to 241 °C.
For `CC(C)(C)c1ccc(CCCCC(=O)CC2CCCCC2)cc1NC(=O)CC1c2ccccc2Oc2ccccc21`, the melting point was 126 to 127 °C.
For `N#CCCOc1ccc(F)cc1`, the melting point was 84 to 85 °C.
`CC(C)(C)n1nc(-c2ccc(C(F)(F)F)cc2)c(C#N)c1N` showed a melting point of 155 to 156 °C.
With `Cc1cccc(C)c1N1C(=O)C(=O)N(C)C1=S` the melting point was 144 to 146 °C.
`COc1cc2nc(N)nc(-c3ccccc3Br)c2cc1OC` gave a melting point of 241 to 243 °C.
Work on `Cc1ccccc1CC1CCN(C(=O)C(=O)Nc2ccc3c(c2)CC(=O)N3)CC1` yielded a melting point of 211 to 213 °C.
Compound `COc1ccc(OCCCCCCc2c(C)n[nH]c2O)c(Cl)c1` has a melting point of 145 to 146 °C.
For `COc1ccc2c(c1)c(OCc1ccccc1)c(C(=O)O)n2-c1ccccc1`, the melting point was 123 °C.
In the case of `Cc1cccc(NC(=O)NCC(=O)N(c2ccccc2)C(C(=O)OC(C)(C)C)c2cccc(Br)c2)c1` (racemic), the melting point is reported as 103 °C.
In the case of `O=[N+]([O-])c1ccc2c(c1)CCC(CO)O2` (configuration not stated), the melting point is reported as 96.5 °C.
Work on `CC1=C(C(=O)c2ccc(C(F)(F)F)cc2)C(=O)C2C=CC=CC2C1=O` (configuration not stated) yielded a melting point of 155 to 156 °C.
For `COc1cc2c(cc1OC)C(=O)C(c1ccc3c(c1)OCO3)CC2` (configuration not stated), the melting point was 168 to 170 °C.
`Cc1c(CN2CCc3c(c4cccc(Br)c4n3C)C2=O)ncn1S(=O)(=O)N(C)C` gave a melting point of 182 to 185 °C.
For `CN(C)c1ccc2nnc(C(=O)O)c(O)c2c1`, the melting point was over 330 °C.
In the case of `Cc1nc(-c2ccc(C(F)(F)F)cc2)sc1CSc1ccc2c(c1)CC(C(=O)O)CO2` (configuration not stated), the melting point is reported as 139 to 140 °C.
`Cc1ccc(Oc2ccc(C=O)cc2)c(O)c1` showed a melting point of 46 to 48 °C.
Work on `Nc1nc2cc(-c3cccc(C(=O)N4CCCC4)c3)ccc2c2c1nc(CO)n2CC1CCOCC1` yielded a melting point of 281 to 284 °C.
Work on `Cc1nc(N2C[C@@H](C)N(Cc3ccc(F)cc3)C2=O)sc1C(=O)NCc1cccnc1` yielded a melting point of 135 to 136 °C.
`O=C(O)c1ccc(-c2ccc(NC(=O)C(F)(F)F)cc2)[nH]c1=O` gave a melting point of over 270 °C.
With `O=C(c1ccc(Cl)cc1)c1cc(CBr)ccc1Cl` the melting point was 81 to 83 °C.
Compound `N#CCC(C(=O)N1C(=O)OCC1c1ccccc1)c1ccccc1F` (configuration not stated) has a melting point of 179 to 181 °C.
Work on `CN1CCN(c2nn(S(=O)(=O)c3ccccc3)c3ccc(Br)cc23)CC1` yielded a melting point of 135 to 137 °C.
Compound `FC(F)(F)c1cccc(CSc2nnc(-c3ccnc4[nH]ccc34)o2)c1` has a melting point of 164 to 165 °C.
For `CCCCCCCCCCC[C@]1(C)OO[C@@H]2C[C@H]1CC(=O)[C@@H]2C`, the melting point was 42 °C.
With `Cc1nc(N)c(C#N)c(-c2ccco2)n1` the melting point was 317 to 320 °C.
